From patent publication US20230067644A1, “DRG-MDM2-3 FOR USE AS A NOVEL MOUSE DOUBLE MINUTE 2 (MDM2) INHIBITOR” (BAHCESEHIR UNIVERSITESI, priority 2020, published 2023)
Where two headings read alike, the source gives them in different places.

Key:
MDM2 protein = MDM2 protein (Homo sapiens, UniProt Q00987); conditions: background statement; cited from earlier work
MDA-MB231 cell lines = test: MTT cell viability assay (IC50); format: cell-based; conditions: Homo sapiens, MDA-MB-231, single dose of treatment, 10^-9 to 10^-4 M, absorbance 570 nm
Description: (§1) HCT 116 colon cancer and MDA-MB231 breast cancer cell lines are used in cell culture experiments.
Cells were treated with high-glucose DMEM medium (Biosera) supplemented with 10% FBS (Gibco) and 1× penicillin/streptomycin (Multicell). The assay was designed to contain 10,000 cells for each well of 24-well cell culture plates before being treated with inhibitors.
Compound of formula I was dissolved with DMSO as 20 mM stock. 24 hours later, the solution was diluted in DMEM with 10% FBS and final concentration of vehicle DMSO was 0.5% at maximum. Therefore, the vehicle group included 0.5% DMSO concentration in experiments. Intensive cultivation of cells causes a decrease in proliferation capacity.
The MTT cell viability assay was used to detect values of half-maximal inhibitory concentration (IC50). Different concentrations of compound of formula I ranging between 10^−9 to 10^−4 M were tested on MDA-MB231 cell lines with single dose of treatment. 570 nm absorbance values were recorded and IC50 values were calculated by dose response—inhibition curves and nonlinear regression analysis on Graphpad Prism 8 software.

HCT-116 cells [1] = test: MTT cell proliferation assay; format: cell-based; conditions: Homo sapiens, HCT-116, 100 μM, read-out: cell viability decreased
Description: as §1
For proliferation inhibition analysis, cells were seeded in 24 well plates at 1×10^4 cells/well cells overnight without drug treatment. During the cell proliferation experiments, we performed five days of treatment in each cell line and repeated the experiments three times to check each experiment. No significant difference in cell viability was observed after the third day. Therefore, cells with different drug concentrations were treated for two days. After 48 hours, MTT was applied to the cells and incubated at 37° C. for 4 hours, formazan was solubilized with DMSO (Sigma-Aldrich, St. Louis, USA) and absorbance was measured at 570 nm.
Molecule concentration was 100 μM, the lower concentrations were not shown. Vehicle represents the groups treated with only %0,5 DMSO and Untreated represents no molecule treated group. Molecule responses were evaluated by cell viability which is obtained by spectrophotometric analysis of cells upon MTT treatment at 12 h, 24 h, 48 h and 72 h. […] Statistical significance in graphs was determined by comparing each treatment group with DMSO control using ANOVA testing and significance is considered as p<0.001 (FIG. 2).
As a result, cell viability decreased by 40% at the end of the first day and reached 60% at the end of the third day. […]

HCT-116 cells [2] = test: Microscopic evaluation of cells (proliferation, apoptotic morphology); format: cell-based
Description: Cells were photographed and observed under microscope for three days.
As a result, cell viability decreased by 40% at the end of the first day and reached 60% at the end of the third day. Any cell proliferation change and apoptotic cell morphology were not observed in the untreated and vehicle groups. Moreover, differences in cell morphology were also observed. […] Upon treatment with the compound of formula I according to present invention with 100 μM concentration, cells having the morphology of apoptotic cells were observed starting from the 3rd hour.

Sequence of MDM2 protein (Q00987 whole entry, species assumed): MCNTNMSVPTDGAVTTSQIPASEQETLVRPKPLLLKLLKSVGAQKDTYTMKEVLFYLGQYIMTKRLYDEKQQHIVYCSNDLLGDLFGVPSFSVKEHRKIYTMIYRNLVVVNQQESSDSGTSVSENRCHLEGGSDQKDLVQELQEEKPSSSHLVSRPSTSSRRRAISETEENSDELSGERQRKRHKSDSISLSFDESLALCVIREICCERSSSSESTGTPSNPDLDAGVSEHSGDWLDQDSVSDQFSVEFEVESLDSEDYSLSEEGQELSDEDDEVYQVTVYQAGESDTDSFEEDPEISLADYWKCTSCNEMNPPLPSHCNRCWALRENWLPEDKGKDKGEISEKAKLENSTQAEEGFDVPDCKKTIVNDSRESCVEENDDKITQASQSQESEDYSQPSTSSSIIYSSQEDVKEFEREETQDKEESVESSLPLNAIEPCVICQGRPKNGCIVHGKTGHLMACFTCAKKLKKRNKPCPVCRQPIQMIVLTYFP

IC50 (MDA-MB231 cell lines) [µM] | Compound | binding affinity to MDM2 protein relative to a natural p53 peptide (MDM2 protein) [fold] | cytotoxicity at 100 µM (HCT-116 cells [1]; at the end of the first day) [%] | cytotoxicity at 100 µM (HCT-116 cells [1]; at the end of the third day) [%] | hour from which cells having the morphology of apoptotic cells were observed (HCT-116 cells [2]; 100 μM concentration) [hour] | apoptotic activity (onset, microscopy) (HCT-116 cells [2]; FIG. 3) | proliferation and cell structures under microscope (HCT-116 cells [2]; observed for three days, vs vehicle and untreated, FIG. 3)
 | MI-319 | 500 |  |  |  |  | 
41 | O=C(CCc1ccccc1Cl)NC(CC1CNc2ccccc21)C(=O)O (stereo not shown) [compound of formula I] |  | 40 | 60 | 3 | clear apoptotic activity from the twelfth hour | reduced proliferation and showed apoptotic cell structures
